“And” between values parts separate entries of the source, which are not always exact repeats. Equal values may be shown once.
Columns and labels:
human ICMT = human ICMT (Homo sapiens (Human), UniProt O60725); experiment: ICMT biochemical assay (Methyltransferase-Glo)
Experimental: Recombinant human ICMT was prepared by infection of Sf9 cells with a recombinant baculovirus containing the entire open reading frame of the human ICMT cDNA.
Cells producing ICMT were harvested 66 hours post-infection. The cells are homogenized and resuspended in 5 mM NaHPO4 (pH 7.0), and a cocktail of protease inhibitors. The membrane was pelleted, after removal of nuclei and debris, at 100,000×g for 1 hour. Membranes were resuspended in 5 mM NaHPO4 (pH 7.0) with 5 mM EDTA at 10-12 mg/ml. The suspension was stored at −80° C. in multiple aliquots.
An ICMT enzymatic assay was developed using Promega's Methyltransferase-GloTMreagents. In the assay, ICMT catalyzes the methylation of the N-Acetyl-S-farnesyl-L-cysteine by transferring a methyl group from SAM to the farnesylated cysteine and further converts the SAM to SAH. The methyltransferase activity is measured based on the amount of SAH produced from the reaction through the use of coupling enzymes that convert the SAH to ATP. The MTase-Glo detection solution then catalyzes the formation of light from ATP.
A final concentration of 2.0 μM and 20 μM of SAM and peptide were added and further incubated for 90 minutes at room temperature before adding the MTase Glo and detection reagent. Reaction signals were detected using microplate readers on luminescent mode (Satire Tecan). The IC50 was determined by nonlinear regression, using GraphPad Prism version, 5.03.

MIAPaCa-2 cells = experiment: Cell proliferation assay (CellTiter-Glo); format: cell-based; conditions: Homo sapiens, MIA PaCa-2, 72 h, 3 days
Experimental: Cell proliferation assay was performed using CellTiter-Glo Luminescent Cell Viability Assay (Promega) following manufacturer's instructions. The MIAPaCa-2 cells (ATCC) were treated with compounds that were serial diluted in the media (DMEM). Plates were incubated for 3 days at 37° C. in 5% CO2. After 3 days, an equal volume of Cell Titer Glo reagent was added. Plates were rocked on a rotator for 2 hours. 100 μL of each well was transferred to a 96-well opaque plate, and luminescence emitted was measured with the Tecan Safire II.

[1] = test system: Prelamin A in MIAPaCa-2 cells; experiment: Prelamin A accumulation assay (Western blot); format: cell-based; conditions: various concentrations, 48 hours
Experimental: The MIAPaCa-2 cells were seeded in 6-well plates. After seeding for 24 hours, the cells were treated with either DMSO or varying concentration of the compound and incubated for 48 hours. The cells were trypsinized and the lysate was extracted with RIPA buffer (Santa Cruz). The total protein concentration of lysate is quantified using the standard Bradford assay (Biorad protein assay, microplate standard assay).
Western blot analysis was performed using antibody against Prelamin A in MIAPaCa cells treated with compound at various concentration for 48 hours. 15.0 μg of cell lysate was run on a SDS-PAGE and then transferred to nitrocellulose membrane. The membrane was then incubated in blocking buffer [PBS (phosphate buffered saline) with 0.1% Tween 20 and 5% dry milk] at room temperature for 1 hour, followed by incubation with Prelamin A antibody (rat monoclonal antibody) at 1:2500 dilution in PBS, 0.1% Tween 20 and 5% dry milk overnight at 4° C., followed by three washes (15 minutes each wash) in PBS, 0.1% Tween 20 on the next day.
The nitrocellulose membrane was then incubated with secondary antibody solution at room temperature for 1 hour, washed three times before developed with enhanced Chemiluminescence (ECL) mixture (Amersham, Aylesbury, United Kingdom), incubated for 5 minutes and exposed using Fluor Chem E System instrument (Protein Simple).

[2] = ICMT membrane extract from Sf-9 cells, 30 min preincubation, 90 min reaction

Chain of human ICMT (O60725 whole entry): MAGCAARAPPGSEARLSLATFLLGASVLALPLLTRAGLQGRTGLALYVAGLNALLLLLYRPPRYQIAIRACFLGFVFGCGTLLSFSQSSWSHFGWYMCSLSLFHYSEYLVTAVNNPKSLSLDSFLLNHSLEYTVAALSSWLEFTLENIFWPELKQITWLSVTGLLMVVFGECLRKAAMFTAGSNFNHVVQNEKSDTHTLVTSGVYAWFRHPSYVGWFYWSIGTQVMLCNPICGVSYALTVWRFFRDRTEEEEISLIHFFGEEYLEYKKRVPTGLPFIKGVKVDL

Row | Structure (SMILES) | IC50 (human ICMT; [2]) | also measured
1 | Cc1nccn1-c1cc(OCCOc2ccc(C#N)cc2F)ccn1 [Compound 53, 3-fluoro-4-(2-((2-(2-methyl-1H-imidazol-1-yl)pyridin-4-yl)oxy)ethoxy)benzonitrile] | 440 pM | GI50 (MIAPaCa-2 cells): 2200 nM
2 | Cn1nccc1-c1cc(OCCOc2ccc(C#N)cc2)ccn1 [Compound 59, 4-(2-((2-(1-methyl-1H-pyrazol-5-yl)pyridin-4-yl)oxy)ethoxy)benzonitrile] | 20000 pM | GI50 (MIAPaCa-2 cells): 5520 nM; Prelamin A accumulation (Western blot) [1]: Prelamin A accumulation
3 | Cn1nccc1-c1cc(OCCOc2ccc(C#N)cc2F)ccn1 [Compound 69, 3-fluoro-4-(2-((2-(1-methyl-1H-pyrazol-5-yl)pyridin-4-yl)oxy)ethoxy)benzonitrile] | 2800 pM and 1400 pM and 1500 pM | GI50 (MIAPaCa-2 cells): 5050 nM; Prelamin A accumulation (Western blot) [1]: Prelamin A accumulation
4 | Cc1nccn1-c1cc(OCCOc2ccc(C#N)cn2)ccn1 [Compound 70, 6-(2-((2-(2-methyl-1H-imidazol-1-yl)pyridin-4-yl)oxy)ethoxy)nicotinonitrile] | 27000 pM | GI50 (MIAPaCa-2 cells): 5990 nM; Prelamin A accumulation (Western blot) [1]: Prelamin A accumulation
5 | Cc1nccn1-c1cccc(OC[C@@H](C)Oc2ccc(C#N)cc2F)c1 [Compound 78, (R)-3-fluoro-4-((1-(3-(2-methyl-1H-imidazol-1-yl)phenoxy)propan-2-yl)oxy)benzonitrile] | – | IC50 (human ICMT; unit printed in cell (pM)): 75 pM; GI50 (MIAPaCa-2 cells): 6020 nM
6 | Cn1nccc1-c1cc(OCCOc2ccc(C#N)cc2)ccc1F [Compound 93, 4-(2-(4-fluoro-3-(1-methyl-1H-pyrazol-5-yl)phenoxy)ethoxy)benzonitrile] | 6600 pM | –
7 | Cn1nccc1-c1cc(F)cc(OCCOc2ccc(C#N)cc2)c1 [Compound 94, 4-(2-(3-fluoro-5-(1-methyl-1H-pyrazol-5-yl)phenoxy)ethoxy)benzonitrile] | 1600 pM | –
8 | Cc1nncn1-c1cc(OCCOc2ccc(C#N)cc2F)ccn1 [Compound 95, 3-fluoro-4-(2-((2-(3-methyl-4H-1,2,4-triazol-4-yl)pyridin-4-yl)oxy)ethoxy)benzonitrile] | 10000 pM | –
9 | Cn1nccc1-c1ccc(F)c(OCCOc2ccc(C#N)cc2)c1 [Compound 96, 4-(2-(2-fluoro-5-(1-methyl-1H-pyrazol-5-yl)phenoxy)ethoxy)benzonitrile] | 400000 to 3e+06 pM | –
10 | Cn1nccc1-c1cc(OCCOc2ncc(C#N)cc2F)ccn1 [Compound 97, 5-fluoro-6-(2-((2-(1-methyl-1H-pyrazol-5-yl)pyridin-4-yl)oxy)ethoxy)nicotinonitrile] | 470000 to 1e+06 pM | –
11 | Cn1nccc1-c1cc(OCCOc2ccc(Cl)cc2C#N)ccn1 [Compound 98, 5-chloro-2-(2-((2-(1-methyl-1H-pyrazol-5-yl)pyridin-4-yl)oxy)ethoxy)benzonitrile] | 10000 pM | –
12 | Cc1nccn1-c1cc(OCCOc2ccc(Cl)cc2C#N)ccn1 [Compound 99, 5-chloro-2-(2-((2-(2-methyl-1H-imidazol-1-yl)pyridin-4-yl)oxy)ethoxy)benzonitrile] | 2600 pM | –
13 | Cn1nccc1-c1cc(OCCOc2ccc(C#N)cc2Cl)ccn1 [Compound 100, 3-chloro-4-(2-((2-(1-methyl-1H-pyrazol-5-yl)pyridin-4-yl)oxy)ethoxy)benzonitrile] | 1800 pM | –
14 | Cn1nccc1-c1cc(OCCOc2ccc(Cl)cc2F)ccn1 [Compound 101, 4-(2-(4-chloro-2-fluorophenoxy)ethoxy)-2-(1-methyl-1H-pyrazol-5-yl)pyridine] | 29000 pM | –
15 | Cc1nccn1-c1cccc(OCCOc2ccc(Cl)cc2F)c1 [Compound 102, 1-(3-(2-(4-chloro-2-fluorophenoxy)ethoxy)phenyl)-2-methyl-1H-imidazole] | 68000 pM | –
16 | Cc1nccn1-c1cc(OCCOc2ccc(Cl)cc2F)ccn1 [Compound 103, 4-(2-(4-chloro-2-fluorophenoxy)ethoxy)-2-(2-methyl-1H-imidazol-1-yl)pyridine] | 3100 pM | –
17 | Cc1nccn1-c1cc(OCCOc2ccc(Br)cc2F)ccn1 [Compound 104, 4-(2-(4-bromo-2-fluorophenoxy)ethoxy)-2-(2-methyl-1H-imidazol-1-yl)pyridine] | 1700 pM | –

Row | Structure (SMILES) | IC50 (human ICMT; [2]) | also measured
18 | Cn1nccc1-c1cc(F)cc(OCCOc2ccc(C#N)cc2F)c1 [Compound 105, 3-fluoro-4-(2-(3-fluoro-5-(1-methyl-1H-pyrazol-5-yl)phenoxy)ethoxy)benzonitrile] | 6000 pM | –
19 | Cn1nccc1-c1cccc(OCCOc2ccc(C#N)cc2F)n1 [Compound 106, 3-fluoro-4-(2-((6-(1-methyl-1H-pyrazol-5-yl)pyridin-2-yl)oxy)ethoxy)benzonitrile] | 300000 to 1e+06 pM | –
20 | Cn1nccc1-c1cc(OCCOc2ncc(C#N)cc2F)ccc1F [Compound 107, 5-fluoro-6-(2-(4-fluoro-3-(1-methyl-1H-pyrazol-5-yl)phenoxy)ethoxy)nicotinonitrile] | 150000 pM | –
21 | Cc1nccn1-c1cc(OCCOc2ccc(C#N)cc2)ccc1F [Compound 108, 4-(2-(4-fluoro-3-(2-methyl-1H-imidazol-1-yl)phenoxy)ethoxy)benzonitrile] | 51000 pM | –
22 | Cc1nccn1-c1cc(OCCOc2ccc(C#N)cn2)ccc1F [Compound 109, 6-(2-(4-fluoro-3-(2-methyl-1H-imidazol-1-yl)phenoxy)ethoxy)nicotinonitrile] | 170000 pM | –
23 | Cn1nccc1-c1cccc(OCCOc2ccc(Cl)cc2)c1 [Compound 110, 5-(3-(2-(4-chlorophenoxy)ethoxy)phenyl)-1-methyl-1H-pyrazole] | 270000 pM | –
24 | Cc1nccn1-c1cccc(OCCOc2ccc(C#N)cc2C(F)(F)F)c1 [Compound 111, 4-(2-(3-(2-methyl-1H-imidazol-1-yl)phenoxy)ethoxy)-3-(trifluoromethyl)benzonitrile] | 180000 pM | –
25 | Cc1nccn1-c1cccc(OCCOc2ccc(Cl)cc2)c1 [Compound 112, 1-(3-(2-(4-chlorophenoxy)ethoxy)phenyl)-2-methyl-1H-imidazole] | 250000 pM | –
26 | Cn1nccc1-c1cc(OCCOc2ccc(C#N)cc2F)ccc1F [Compound 113, 3-fluoro-4-(2-(4-fluoro-3-(1-methyl-1H-pyrazol-5-yl)phenoxy)ethoxy)benzonitrile] | 22000 pM | –
27 | Cc1nccn1-c1cccc(OCCOc2ccc(F)cc2C#N)c1 [Compound 114, 5-fluoro-2-(2-(3-(2-methyl-1H-imidazol-1-yl)phenoxy)ethoxy)benzonitrile] | 82000 pM | –
28 | Cc1nccn1-c1cc(OCCOc2ccc(Cl)cc2)ccn1 [Compound 115, 4-(2-(4-chlorophenoxy)ethoxy)-2-(2-methyl-1H-imidazol-1-yl)pyridine] | 160000 pM | –
29 | N#Cc1ccc(OCCOc2cccc(-c3ccnn3C3CC3)c2)c(F)c1 [Compound 116, 4-(2-(3-(1-cyclopropyl-1H-pyrazol-5-yl)phenoxy)ethoxy)-3-fluorobenzonitrile] | 9500 pM | –
30 | N#Cc1ccc(OCCOc2cccc(-c3ccnn3C3CC3)c2)cc1 [Compound 117, 4-(2-(3-(1-cyclopropyl-1H-pyrazol-5-yl)phenoxy)ethoxy)benzonitrile] | 55000 pM | –
31 | N#Cc1ccc(OCCOc2cccc(-c3ccnn3C3CC3)c2)c(Cl)c1 [Compound 118, 3-chloro-4-(2-(3-(1-cyclopropyl-1H-pyrazol-5-yl)phenoxy)ethoxy)benzonitrile] | 2200 pM | –
32 | Cc1nccn1-c1cc(OCCOc2ccc(F)cc2C#N)ccn1 [Compound 119, 5-fluoro-2-(2-((2-(2-methyl-1H-imidazol-1-yl)pyridin-4-yl)oxy)ethoxy)benzonitrile] | 80000 pM | –
33 | N#Cc1ccc(OCCOc2ccnc(-n3cnnn3)c2)c(F)c1 [Compound 120, 4-(2-((2-(1H-tetrazol-1-yl)pyridin-4-yl)oxy)ethoxy)-3-fluorobenzonitrile] | 12000 pM | –
34 | Cn1nccc1-c1cc(OCCOc2ccc(Br)cc2F)ccn1 [Compound 121, 4-(2-(4-bromo-2-fluorophenoxy)ethoxy)-2-(1-methyl-1H-pyrazol-5-yl)pyridine] | 70000 pM | –

— patent US11834430B2, “Compounds useful as inhibitors of isoprenylcysteine carboxyl methyltransferase” (AGENCY FOR SCIENCE, TECHNOLOGY AND RESEARCH, priority 2017, dated 2023)
